Values belong to the compound of their own block, whether it stands above or below them.
Legend:
[1] = tested on: cell lines derived from stomach, lung, breast, ovarian, prostate, pancreatic, bile duct, thyroid cancer and melanoma; assay: Growth inhibition compared with 5-FU, CPT11, CDDP in cell lines of other cancers (FIG. 6); format: cell-based, human; conditions: cell lines from a variety of other cancers
Method: (§1) The inhibitory efficacy of bis(arylmethylidene)-acetones on the development and growth of malignant tumor cells was examined. Curcumin and bis(arylmethylidene)-acetone compounds were dissolved in DMSO to obtain 50 mM compound solutions for storage. Sixteen human cancer cell lines (HCT116, DLD-1, SW620. LK87, PC3, MCF7, PK9, HuCCT-1, SH10TC, GCIY, G361, 8505c, HepG2, A431, ACHN, OVK18) were obtained from the Medical Cellular Resources Center of the Institute of Development, Aging, and Cancer at Tohoku University, Japan. These cells were cultured at 37° C. under 5% CO2 conditions using as a culture medium RPMI1640 (Sigma Aldrich) supplemented with 10% fetal bovine serum and kanamycin (Wako Pure Chemical Industries: final concentration, […]).
(§2) Each cell line was placed on a 96-well microtiter plate at a cell density of 2500 to 5000 cells/100 μL/well in accordance with the growth rate of the cell line. After cell cultivation for 24 hours, […] medium containing each compound was added. The final concentration of each test compound is 0, 0.1, 0.25, 0.5, 1, 2.5, 5, 10, 25, 50, and 100 μM (11 levels). The maximum final concentration of DMSO used as a solvent was 1%. […] Thereafter, each optical absorbance at 450 nm (620 nm background) was measured with an MPR-A4i microplate reader (Tosoh, Japan). A curve of the inhibition of cell growth was constructed using the measured optical absorbances. […]

[2] = tested on: β-catenin; assay: Western blot of β-catenin degrading activity; format: cell-based, human; conditions: FIG. 9
Method: Western-blot analysis was used to investigate effects on the expression of oncogene products, ErbB2, c-Myc, and Cyclin D1, whose activity is enhanced in a variety of cancer cells, and to investigate the activity of degrading β-catenin, which plays an important role in the initial stages of carcinogenesis to the formation and development of tumors.
(§3) Western-blot analysis was performed in the following manner:
(§4) After HCT116 cells were treated with each test compound, plate-adhered cells were recovered along with cells suspended in supernatants, centrifuged, and pelleted. The cells were then lysed with a lysis solution (40 mM Tris-HCl, 1% Triton X-100, 2 mM MgCl2) supplemented with 200-μM phenylmethanesulfonyl fluoride (PMSF), 500-μM benzamidine, and 1-μg/mL leupeptin. After the mixture was allowed to stand on ice for 30 minutes, it was centrifuged for 10 minutes at 4° C. and 10000×g, and supernatants were recovered. To the resultant supernatant was added equimolarly 2× sample buffer (0.1 M Tris-HCl (pH 6.8), 4% SDS, 20% glycerol, and 12% β-mercaptoethanol), and the mixture was shaken for 3 minutes at 4° C., then heated to 95° C. for 4 minutes, and then stored at −20° C. until use. The cell lysates were phoresed on 8% SDS-PAGE, transferred to a Hybond-P membrane (Amersham Biosciences), and made to react with various monoclonal antibodies described below.
(§5) Monoclonal antibodies: anti-actin antibody (A2066, Sigma Aldrich), anti-β-catenin antibody (6101 53, BD-transduction Laboratories), anti-p53 antibody (FL393: sc-6243HRP), anti-cyclin D1 antibody (M-20: sc-718), anti-c-Myc antibody (9E10: sc-40), anti-k-Ras-2B antibody (C-19: sc-521), and anti-c-ErbB2 antibody (A0485, DAKO Cytomation).

[3] = tested on: colon-cancer cells; assay: Growth inhibition compared with anti-cancer agents 5-FU, CPT11, CDDP (FIG. 6); format: cell-based, human
Method: as §1
(§6) Each cell line was placed on a 96-well microtiter plate at a cell density of 2500 to 5000 cells/100 μL/well in accordance with the growth rate of the cell line. After cell cultivation for 24 hours, […] medium containing each compound was added. The final concentration of each test compound is 0, 0.1, 0.25, 0.5, 1, 2.5, 5, 10, 25, 50, and 100 μM (11 levels). The maximum final concentration of DMSO used as a solvent was 1%. After culturing for 96 hours, the medium was aspirated away, followed by washing with PBS. Next, 100 μL of a medium containing a solution of Cell Counting Kit 8 at 1/10 (v/v) was added. Culturing was then continued for one hour. Thereafter, each optical absorbance at 450 nm (620 nm background) was measured with an MPR-A4i microplate reader (Tosoh, Japan). A curve of the inhibition of cell growth was constructed using the measured optical absorbances.
Stored solutions of three anti-cancer agents: 5-FU, CDDP, and CPT11, prepared beforehand (1 mM), were suitably diluted prior to use, and also added to culture media.

[4] = tested on: A431, ACHN, and HepG2 cells; assay: Growth inhibition compared with conventional anti-cancer agents (FIG. 6); format: cell-based, human
Method: as §1, §2

[5] = tested on: DLD-1 cells; assay: Cell growth inhibition (Cell Counting Kit 8, Wst-8), 96 h exposure; format: cell-based; conditions: Homo sapiens, DLD-1 colon cancer cells
Method: as §1
(§7) Three human colon-cancer cell lines (DLD-1, HCT116, SW620) were used in screening for cell growth inhibitory efficacy. The test compounds (bis(arylmethylidene)-acetones) were added to the culture media at the target concentrations, and exposure to the compounds was then continued for 96 hours in order to investigate not only acute cell damages but also effects on the cells, involving intracellular metabolic responses and others. The cell growth inhibitory efficacy was then evaluated with Cell Counting Kit 8 (Wst-8 Test, Dojindo Laboratories, Japan). In this analysis method, tetrazolium salt Wst-8 is degraded by reduced form nicotinamide adenine dinucleotide (nicotinamide adenine dinucleotide H; NADH). The activity of NADH is maintained only inside viable cells, and Wst-8 becomes colored upon degradation. The optical absorbance at 450 nm is measured, whereby the number of viable cells can be indirectly estimated.
as §6

[6] = tested on: SW620 cells; assay: as above; format: cell-based; conditions: Homo sapiens, SW-620, SW620 colon cancer cells
Method: as §1, §7, §6

[7] = tested on: HCT116 cells; assay: as above; format: cell-based; conditions: Homo sapiens, HCT-116, HCT116 colon cancer cells
Method: as §1, §7, §6

[8] = tested on: primary cultured hepatic cells (hNHeps); assay: Toxicity test on normal cells; format: cell-based; conditions: FIG. 13
[9] = tested on: C57BL/6J mice; assay: In vivo toxicity, mixed feed in high-fat diet; set-up: species or system mouse; conditions: oral, 0.1% (w/w) in high-fat diet HFD35, 5 mg/day, more than 120 days
Method: The synthetic compounds of the present invention are derived from curcumin, which is originally a food item. […] As a further test for in vivo toxicity, inbred C57BL/6J mice received daily an oral intake of 5 g of mixed feed (test compound dose: 5 mg/day) wherein each test compound was admixed at 0.1% (weight/weight) with a high-fat diet (HFD35, CLEA Japan).

[10] = tested on: Apc580D mice; assay: Survival in familial adenomatous polyposis mouse model; format: in vivo
Excerpt: Familial adenomatous polyposis (FAP) is the most appropriate model for considering the multistage process of carcinogenesis in colon cancer. The APC gene is a causative gene in this illness. This gene is a tumor suppressor gene and is linked to the degradation of the β-catenin gene product. The FAP mouse model Aoc580D (Apc580D/+mice, wherein a mutation was introduced into the mouse Apc gene by homologous genetic recombination) is heterozygous for a genetic mutation in which codon 580 of the APC gene is a stop codon (i.e., the Apc gene product is truncated at codon 580). These mice present hundreds of polyps in the gastrointestinal tract in the same manner as human FAP. […] Reference: Shibata H. et al., Science, 278, pp. 120-123 “Rapid colorectal adenoma formation initiated by conditional targeting of the Apc gene,” 1997.
Analysis was performed on therapeutic models (in which administration was initiated around the age of 8 weeks, when polyposis had already been observed) and prophylactic models (in which administration was initiated around the age of 4 weeks, when polyposis had not been observed) of carcinogenesis in the colon. Apc580D mice (2 animals) given daily an oral intake of HFD35 alone at a dose of 5 g were used as a control.

[11] = tested on: p53; assay: Western blot of p53 gene product expression; format: cell-based, human; conditions: FIG. 11
Method: as §3, §4, §5
Curcumin is known to have activity in degrading p53 gene products. Degradation, genetic expression reduction, instability, or other deficiencies of the tumor suppressor gene p53 gene products, result in disadvantageous conditions as concerns cell malignancy and tendency to become cancerous.

Structure (SMILES): O=C(/C=C/c1cc(O)cc(O)c1)/C=C/c1cc(O)cc(O)c1 (hydrate or solvate) [GO-Y038, (1E,4E)-1,5-bis-(3,5-dihydroxyphenyl)penta-1,4-dien-3-one]
- melting point: 298 to 300 °C (dec.)

Structure (SMILES): COc1cc(Br)cc(/C=C/C(=O)/C=C/c2cc(Br)cc(OC)c2)c1 [GO-033, (1E,4E)-1,5-bis-(3-bromo-5-methoxyphenyl)penta-1,4-dien-3-one]
- melting point: 181 to 183 °C

Structure (SMILES): O=C(/C=C/c1ccc2ccccc2c1)/C=C/c1ccc2ccccc2c1 [GO-Y011, (1E,4E)-1,5-dinaphthalen-2-yl-penta-1,4-dien-3-one]
- melting point: 244 to 246 °C

Structure (SMILES): COc1cc(/C=C/C(=O)/C=C/c2cc(OC)c(O)c(OC)c2)cc(OC)c1O [GO-Y026, (1E,4E)-1,5-bis-(4-hydroxy-3,5-dimethoxyphenyl)penta-1,4-dien-3-one]
- melting point: 166 to 168 °C

Structure (SMILES): COCOc1c(OC)cc(/C=C/C(=O)/C=C/c2cc(OC)c(OCOC)c(OC)c2)cc1OC [GO-Y031, (1E,4E)-1,5-bis-(3,5-dimethoxy-4-methoxymethoxyphenyl)penta-1,4-dien-3-one]
- cytotoxicity to normal cells [8]: non-cytotoxic
- growth inhibition on normal cells [8]: no growth inhibition was observed
- bodily abnormalities including weight loss [9]: No bodily abnormalities, including weight loss, were observed
- average survival, anti-carcinogenically prophylactic model (still alive) ([10]; oral 5 mg/day in HFD35, started around 4 weeks of age): ≥ 110.0 days
- survival time, therapeutic model ([10]; oral 5 mg/day in HFD35, started around 8 weeks of age, average where several mice): 148.0 days
- anti-cancer activity relative to 5-FU, CPT11, and CDDP [1]: strong anti-cancer activity
- concentration at which β-catenin degrading activity is displayed [2]: 1 µM
- β-catenin-degrading activity compared with BDMPP [2]: equal to or greater than that of BDMPP
- growth inhibitory activity relative to 5-FU, CPT11 and CDDP [3]: much stronger
- expression of p53 after 30 hours [11]: enhanced expression of p53
- transient drop in expression of p53 6 to 12 hours after administration [11]: not seen
- effect relative to conventional anti-cancer agents [4]: do not exert biological effects surpassing conventional anti-cancer agents
- IC50 [5]: 0.25 µM
- IC50 [6]: 0.5 µM
- IC50 [7]: 0.25 µM

Structure (SMILES): COc1cc(/C=C/C(=O)/C=C/c2cc(OC)c(OCCO)c(OC)c2)cc(OC)c1OCCO [GO-Y044, (1E,4E)-1,5-bis-[4-(2-hydroxyethoxy)-3,5-dimethoxyphenyl]penta-1,4-dien-3-one]
- melting point: 133 to 135 °C

Structure (SMILES): C#CCOc1c(OC)cc(/C=C/C(=O)/C=C/c2cc(OC)c(OCC#C)c(OC)c2)cc1OC [GO-Y048, (1E,4E)-1,5-bis-(3,5-dimethoxy-4-prop-2-ynyloxyphenyl)penta-1,4-dien-3-one]
- melting point: 162 to 164 °C

Continued, in another order:

- IC50 [5]: 0.25 µM
- IC50 [6]: 0.2 µM
- IC50 [7]: 0.25 µM
Structure (SMILES): COc1cc(/C=C/C(=O)/C=C/c2cc(OC)c(OC)c(OC)c2)cc(OC)c1OC [GO-Y016, (1E,4E)-1,5-bis-(3,4,5-trimethoxyphenyl)penta-1,4-dien-3-one]
- anti-cancer activity relative to 5-FU, CPT11, and CDDP [1]: strong anti-cancer activity
- β-catenin-degrading activity compared with BDMPP [2]: not
- growth inhibitory activity relative to 5-FU, CPT11 and CDDP [3]: much stronger
- effect relative to conventional anti-cancer agents [4]: do not exert biological effects surpassing conventional anti-cancer agents

- melting point: 195 to 197 °C
Structure (SMILES): COc1ccc(/C=C/C(=O)/C=C/c2ccc(OC)c(O)c2)cc1O [GO-Y023, (1E,4E)-1,5-bis-(3-hydroxy-4-methoxyphenyl)penta-1,4-dien-3-one]

- melting point: 61 to 63 °C
Structure (SMILES): COCCOCOc1c(OC)cc(/C=C/C(=O)/C=C/c2cc(OC)c(OCOCCOC)c(OC)c2)cc1OC [GO-Y039, (1E,4E)-1,5-bis-(3,5-dimethoxy-4-methoxyethoxymethoxyphenyl)penta-1,4-dien-3-one]

- melting point: 118 to 120 °C
Structure (SMILES): C#CCOc1c(OC)cc(/C=C/C(=O)/C=C/c2cc(OC)c(OC)c(OC)c2)cc1OC [GO-Y060, (1E,4E)-1-(3,5-dimethoxy-4-prop-2-ynyloxyphenyl)-5-(3,4,5-trimethoxyphenyl)penta-1,4-dien-3-one]

- melting point: 107 to 109 °C
Structure (SMILES): COc1cc(/C=C/C(=O)/C=C/c2cc(OC)c(OCCN=[N+]=[N-])c(OC)c2)cc(OC)c1OCCN=[N+]=[N-] [GO-Y065, (1E,4E)-1,5-bis-[4-(2-azidoethoxy)-3,5-dimethoxyphenyl]penta-1,4-dien-3-one]

Reference: patent US8178727B2, “Bis(arylmethylidene)acetone compound, anti-cancer agent, carcinogenesis-preventive agent, inhibitor of expression of Ki-Ras, ErbB2, c-Myc and Cycline D1, β-catenin-degrading agent, and p53 expression enhancer” (National University Corporation Tohoku University, priority 2005, dated 2012)
